Consider one compound from US20200246317A1, “METHODS OF TREATING DIABETIC NEUROPATHY WITH A THIAZOLINE ANTI-HYPERALGESIC AGENT” (CERSCI THERAPEUTICS, INC., priority 2019, published 2020).

Structures can show the parent of a compound that is named as a salt.

Data set [1] in a line: Rat brain distribution and pharmacokinetic study. Type of data set: in vivo. The text has this:
A rat brain distribution study performed in order to determine standard pharmacokinetic parameters and to assess the brain penetration properties of Compound 1 administered orally and intravenously.

Data set [2] has as its system models of painful diabetic neuropathy. As to the kind of experiment: Models of painful diabetic neuropathy (overview). Type of data set: in vivo. The conditions noted are these: upon repeated dosing.
Data set [3] can be described thus: Gravimetric Vapor Sorption (GVS). In kind it is physicochemical. The text has this: The sample is hygroscopic.
The target of a further data set is T1, OAT1 (Homo sapiens, UniProt Q4U2R8).
T1 construct: expressed in transfected cells; host or cells: HEK293 cells
T1 sequence (Q4U2R8 1-563): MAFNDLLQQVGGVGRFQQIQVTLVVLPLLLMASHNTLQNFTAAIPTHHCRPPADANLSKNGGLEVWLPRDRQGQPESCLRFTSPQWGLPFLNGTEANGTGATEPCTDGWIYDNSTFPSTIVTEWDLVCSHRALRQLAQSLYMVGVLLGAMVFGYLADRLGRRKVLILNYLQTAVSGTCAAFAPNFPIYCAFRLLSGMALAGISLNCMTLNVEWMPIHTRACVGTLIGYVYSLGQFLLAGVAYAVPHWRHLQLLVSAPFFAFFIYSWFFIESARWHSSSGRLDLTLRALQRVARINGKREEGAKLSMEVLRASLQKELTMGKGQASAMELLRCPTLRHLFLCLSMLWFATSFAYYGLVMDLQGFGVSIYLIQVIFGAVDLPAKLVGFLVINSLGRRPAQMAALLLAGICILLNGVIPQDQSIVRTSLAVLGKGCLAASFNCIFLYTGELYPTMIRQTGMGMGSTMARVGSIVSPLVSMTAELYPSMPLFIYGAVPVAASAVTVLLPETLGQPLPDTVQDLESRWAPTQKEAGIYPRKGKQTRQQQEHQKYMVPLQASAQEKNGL
Kind of data set: Inhibition of transporters, OAT1 (HEK293 cells). In kind it is in vitro ADME.

Data set [4] is described as follows: Stability in hepatocytes, rat. Type of data set: in vitro ADME.
Data set [5] in a line: Stability in hepatocytes, dog. Type of data set: in vitro ADME.
The next data set can be described thus: Pharmacokinetics in dog. Type of data set: in vivo.
The nature of data set [6]: Stability of dose formulations for GLP toxicology studies (0.5% HPMC). In kind it is physicochemical. Particulars: 1.0 to 200 mg/mL in 0.5% HPMC. As for the experimental part:
Formulation analysis and bioanalytical methods were validated for all GLP studies. Formulation of Compound 1 in water was validated over a range of 1 to 200 mg/mL using HPLC and in 0.5% hydroxypropyl methylcellulose (HPMC) over the same range.
Dose formulation analysis for all good laboratory practice (GLP) general toxicology studies was performed using a validated high-performance liquid chromatography (HPLC)/ultraviolet (UV) analytical method (2750-001-001 Dose Formulation Method 1). The vehicle used in the in vivo toxicology studies was 0.5% HPMC). The analytical method utilized HPLC with monitoring at 227 nm with an isocratic mobile phase of methanol with the column temperature set to 25° C. Linearity over a range of 1.0 to 200 mg/mL was observed. Dose formulations over this range were stable at room temperature for up to 13 days and were stable when stored frozen at −20° C. for up to 85 days.

Data set [7] is described as follows: Stability of dose formulations for in vitro genetic toxicology assays. In kind it is physicochemical. The conditions noted are these: 0.001 to 50 mg/mL. The method, then:
In addition, formulation analysis for in vitro genetic toxicology studies was performed using a validated HPLC/UV analytical method (2750-001-001 Dose Formulation Method No. 2) with linearity over a range of 0.001 to 50 mg/mL. Dose formulations for in vitro assays were stable at room temperature for up to 1 day and when stored frozen at −20° C. for up to 45 days.

For the next data set, the target named is T2, OATP1B3 (Homo sapiens, UniProt Q9NPD5).
T2 construct: expressed in transfected cells; host or cells: HEK293 cells
T2 sequence (Q9NPD5 1-702): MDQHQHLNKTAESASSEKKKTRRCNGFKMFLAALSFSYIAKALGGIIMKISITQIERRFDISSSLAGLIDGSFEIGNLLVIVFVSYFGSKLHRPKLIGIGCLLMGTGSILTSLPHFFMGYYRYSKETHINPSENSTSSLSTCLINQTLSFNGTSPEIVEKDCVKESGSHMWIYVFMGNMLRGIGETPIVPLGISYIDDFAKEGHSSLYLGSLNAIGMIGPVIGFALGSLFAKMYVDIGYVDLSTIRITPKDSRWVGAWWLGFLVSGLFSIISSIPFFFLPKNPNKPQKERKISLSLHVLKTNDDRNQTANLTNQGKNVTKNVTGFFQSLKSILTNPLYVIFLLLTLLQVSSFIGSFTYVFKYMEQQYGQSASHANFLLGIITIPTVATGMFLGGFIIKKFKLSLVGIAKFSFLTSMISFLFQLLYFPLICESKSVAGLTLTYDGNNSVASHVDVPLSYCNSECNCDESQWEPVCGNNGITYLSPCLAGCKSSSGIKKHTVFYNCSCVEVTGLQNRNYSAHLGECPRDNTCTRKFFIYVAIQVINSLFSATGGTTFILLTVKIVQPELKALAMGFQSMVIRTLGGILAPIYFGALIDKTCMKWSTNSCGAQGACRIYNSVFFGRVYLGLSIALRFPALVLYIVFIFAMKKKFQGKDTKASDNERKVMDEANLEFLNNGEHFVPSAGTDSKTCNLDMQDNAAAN
Kind of data set: Inhibition of transporters, OATP1B3 (HEK293 cells). In kind it is in vitro ADME.

Experimental for Pharmacokinetics in dog: Similar conditions were used to validate a bioanalytical method in dog plasma also using 50 μL of plasma. In both assays, a deuterated (Compound 1-d4) internal standard was used.

For the compound `CC1(C)SC(Nc2ccccc2O)=N[C@@H]1C(=O)O` [Compound 1, (R)-2-(2-hydroxyphenylamino)-5,5-dimethyl-4,5-dihydrothiazole-4-carboxylic acid mono-hydrochloride], in [1] (overview), the “distribution to tissues and brain” value is listed as “distributes to tissues but not to brain to an appreciable extent”. For the same compound, the “bioavailability after oral administration” value (in [1] (rat); in “Pharmacokinetics in dog”) was “bioavailable” in each case. Besides, in data set [1] (rats), the “elimination from the systemic circulation” value is “moderate rate”. Also, the Oral bioavailability in [1] (rats, 30 mg/kg oral dose) was 111%. In data set [1] (rats, 30 mg/kg oral dose), the oral absorption result was “rapidly and completely absorbed”. Moreover, the peak plasma concentration in data set [1] (rats, 30 mg/kg oral dose) worked out at 9 µg/mL. The terminal half-life in [1] (rats, 30 mg/kg oral dose) was 1.6 h. For the same compound, in [1] (rats, 30 mg/kg oral dose), the “time to peak plasma concentration” value was at most 1 h. The effect on allodynia entry in data set [2] is listed as “reverses allodynia”. Moreover, the hygroscopicity entry in data set [3] is on record as “hygroscopic”. In addition, on OAT1, the “inhibition of OAT1 (in words)” value is listed as “does not inhibit”. The stability in hepatocytes entry in [4] and in data set [5] was “stable” throughout. Also, the “stability of dose formulations, time stable” value is reported as “up to 13 days” in [6] (room temperature) and “up to 85 days” in data set [6] (stored frozen at −20° C.). The “stability of dose formulations for in vitro assays, time stable” value is listed as “up to 1 day” in data set [7] (room temperature) and “up to 45 days” in data set [7] (stored frozen at −20° C.). Also, the “inhibition of OATP1B3 (in words)” value against OATP1B3 was “does not inhibit”.
